# From patent US20220264883A1, “IMIDAZOTHIAZOLE COMPOUNDS AND METHODS FOR TREATING PLANT NEMATODE INFECTIONS” (The Governing Council of the University of Toronto, priority 2019, published 2022)
# How the values were obtained:
# D. rerio = assay: Danio rerio (zebrafish) embryo dose-response experiments; assay type: in vivo; conditions: non-target system; embryos, 24 hours exposure
# Description: Zebrafish chemical assays were performed similarly to previously described methods^63. In brief, fish were maintained at 28.5° C. on a 14/10 hour light/dark cycle and staged according to hours post fertilization (hpf). For each biological replicate, eggs from LT fish (AB/Tubingen strain) were collected at 4 hpf. At 24 hpf, embryos were arrayed in 24 well plates, 10 per well. In 2 ml tubes, 4 μl of chemical dissolved in DMSO at the appropriate concentration was added to 800 μl of water and then vortexed for 30 s intensively. Water was removed from the embryos in the wells and 800 μl of chemical-treated water was transferred to each of the wells. The DMSO control wells contained DMSO alone. The final DMSO concentration in every well was 0.5% (v/v). […] The embryos were incubated in the chemicals for 24 hours and scored for death and toxicity at 48 hpf. Toxicity was defined as the embryos showing developmental defects such as a curved body, reduced body size, skin whiteness, and heart edema. “Relative viability” was calculated by dividing the number of viable and properly developed embryos in the treatment wells by the average number of viable and properly developed embryos across six DMSO control wells. Three biological replicates were performed for each dose-response experiment, and the relative viability values were averaged across the three replicates.
# [1] = Limit of solubility / precipitation in assay media; assay type: physicochemical; conditions: 100 μM in water, 0.5% DMSO (zebrafish assay)
# S. cerevisiae = assay: Saccharomyces cerevisiae (budding yeast) dose-response experiments; assay type: cell-based; conditions: non-target system; growth over 18 hours
# Description: A saturated culture of the yeast strain RY0568 was diluted to an OD600 of 0.015 with fresh YPD media (see ref. 62). 100 μL of this dilute yeast suspension was added to each well of a 96-well plate. The yeast were grown for 4 hours at 30° C. with shaking at 140 rpm. Using a multichannel pipette, 1 μL of chemical solution was added to each well to achieve the desired final concentrations. The final DMSO concentration was 1% (v/v). The microwell plate was then loaded into a TECAN plate reader set at 30° C. The OD600 of each well was measured over an 18-hour period, and the plate was shaken intermittently throughout the run. The areas under the resultant growth curves were calculated using R scripts adapted from those found in the MESS package. The area under the curve at each concentration of a dose-response assay was divided by the area under the curve for the corresponding DMSO control, resulting in a “relative fitness” value for each concentration tested. Three biological replicates were performed for each dose-response experiment, and the relative fitness values were averaged across the three replicates.
# tomato plants = assay: Root mass of tomato plants in the infectivity assays; assay type: in vivo, Solanum lycopersicum; conditions: 45 μM
# Description: An M. incognita population originally collected from grape (Vitis vinifera) in Parlier, Calif., was used for all experiments, and they were maintained on tomato plants (Solanum lycopersicum ‘Rutgers’) as previously described^73. Infective J2 juveniles were collected as described in^73. For the infectivity assays, 90 grams of soil (1:1 sand:loam mix) was added to each cell of several 6-cell plastic garden packs. The soil was drenched with 18 mL of deionized water containing dissolved chemical or DMSO alone. 2,500 infective J2 juveniles were then added to the soil in 2 mL of deionized water, for a total water volume of 20 mL. The final concentration of the chemicals in water was 45 μM. The DMSO concentration varied from 0.1% to 0.8% (v/v) depending on the stock concentration of the chemical. The highest DMSO concentration was used as the DMSO control. The J2s were incubated in the soil and chemical for 24 hours, after which two- to three-week old tomato seedlings were transplanted into the soil (one plant per cell). Two replicates were performed for each chemical treatment, and four replicates were done for the DMSO controls. The whole experiment was replicated twice, in two different batches on two different days, for a total of four replicates for each chemical treatment, and eight replicates for the DMSO controls. Inoculated plants were grown for 8 weeks in a greenhouse, as described^73, under long-day conditions (16-h photoperiod) with 26/18° C. day/night temperatures. After 8 weeks, the plants were destructively harvested. The tops were removed and discarded, and roots were gently washed with water to remove adhering soil. Eggs were extracted by placing rinsed roots in 0.6% sodium hypochlorite and agitating at 300 rpm for 3 min. Roots were then rinsed over nested 250- and 25.4-μm sieves, with eggs collected from the latter and suspended in water. Roots were dried in a 65° C. oven for at least 24 hours, after which dry roots were weighed. The number of eggs from each plant root was counted on a dissection microscope using a haemocytometer, and the number of eggs per milligram of root was calculated by dividing the total egg number by the mass of the dried root material. An average was taken across the replicates performed on the same day, and then normalized to the DMSO control average. To calculate percent effectiveness at inhibiting reproduction, the normalized values were subtracted from 1, and then multiplied by 100. An average percent effectiveness value was then calculated across the two different batches carried out on different days.
# M. incognita J2 larvae = assay: Meloidogyne incognita in vitro assays (J2 movement); assay type: in vivo; conditions: 45 μM, 2 days, relative to DMSO control
# Description: M. incognita (Kofoid & White) Chitwood Race 1 (originally isolated in Maryland) was used for all experiments, and was maintained on pepper (Capsicum annuum L.) cv. PA-136 in a greenhouse as previously described^64. Infective J2 juveniles were collected as described in ref.65. The microwell dose-response experiments were carried out similarly to previously described protocols^64, 66. In brief, 100 J2s, in 10 μL of deionized water, were added to the wells of 96-well polystyrene plates, after which 190 μL of deionized water containing dissolved chemical, or DMSO alone, was added to each well. The chemicals were tested at 45 μM, and the final concentration of DMSO in each well was 0.5% (v/v). The wells were covered with a plastic adhesive strip, and the lids of the plates were sealed with parafilm. The plates were incubated at 25° C. The mobile fraction of worms was quantified by counting the number of mobile and immobile worms after 2 days of incubation, and then dividing the number of mobile worms by the total number of worms in the well. Three technical replicates were performed for each treatment, and an average value for the mobile fraction of worms was calculated across the three replicates. The percent effectiveness at inhibiting nematode movement was calculated by dividing the average value for the chemical treatment by the average value for the DMSO control, then subtracting this value from 1, and then multiplying by 100.
SMILES,D. rerio LC50 (D. rerio),compound precipitation [1],S. cerevisiae LC50 (S. cerevisiae),Normalized root mass (relative to DMSO control) (tomato plants),% effectiveness at reducing M. incognita movement (M. incognita J2 larvae)
Clc1ccc(-c2cn3ccsc3n2)cc1 [Ia],inactive,Some compound precipitation was observed,inactive,1.3,
Cc1csc2nc(-c3ccccc3)cn12 [Compound Ie],,,,,4.9%
